Data from patent US20210142173A1, “NETWORK-BASED DEEP LEARNING TECHNOLOGY FOR TARGET IDENTIFICATION AND DRUG REPURPOSING” (THE CLEVELAND CLINIC FOUNDATION, priority 2019, published 2021).
Several values for one entry are separate records, joined by “and”; a condition that tells them apart may be missing. Equal entries are not always repeated. Where two headings read alike, the source gives them in different places.

How the values were obtained:
[1] = target: T1, human RORγt (Homo sapiens, UniProt P51449); assay: Cell-based GAL4-RORγt luciferase reporter assay in HEK293T cells; conditions: for inhibition at 10 µM: HEK-293T
T1 construct: expressed in transfected cells; host or cells: HEK293T
T1 sequence (P51449 269-508 limits assumed): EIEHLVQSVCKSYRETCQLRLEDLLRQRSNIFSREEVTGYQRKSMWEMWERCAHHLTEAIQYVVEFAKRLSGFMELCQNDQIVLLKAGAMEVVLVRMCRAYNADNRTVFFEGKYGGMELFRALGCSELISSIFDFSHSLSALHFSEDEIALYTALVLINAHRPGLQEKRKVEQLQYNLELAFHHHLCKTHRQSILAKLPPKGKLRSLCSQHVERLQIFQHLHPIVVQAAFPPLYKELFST
Method: FIG. 7A is a graph showing the inhibitory rate of various drugs as predicted by an example deep learning network system. […] In total, 18 purchasable drugs for RORγt were tested using a cell-based luciferase reporter assay. In this assay, GAL4-RORγt, with fused human RORγt LBD and GAL4 DNA binding domain are co-transfected into HEK293T cells with a luciferase reporter gene harboring the GAL4 response element33.

[2] = target: DRD2 (Homo sapiens, UniProt P14416); conditions: published experimental data; cited from earlier work
[3] = target: T2, ADRA2A (Homo sapiens, UniProt P08913); conditions: published experimental data; cited from earlier work
T2 sequence (P08913 1-465): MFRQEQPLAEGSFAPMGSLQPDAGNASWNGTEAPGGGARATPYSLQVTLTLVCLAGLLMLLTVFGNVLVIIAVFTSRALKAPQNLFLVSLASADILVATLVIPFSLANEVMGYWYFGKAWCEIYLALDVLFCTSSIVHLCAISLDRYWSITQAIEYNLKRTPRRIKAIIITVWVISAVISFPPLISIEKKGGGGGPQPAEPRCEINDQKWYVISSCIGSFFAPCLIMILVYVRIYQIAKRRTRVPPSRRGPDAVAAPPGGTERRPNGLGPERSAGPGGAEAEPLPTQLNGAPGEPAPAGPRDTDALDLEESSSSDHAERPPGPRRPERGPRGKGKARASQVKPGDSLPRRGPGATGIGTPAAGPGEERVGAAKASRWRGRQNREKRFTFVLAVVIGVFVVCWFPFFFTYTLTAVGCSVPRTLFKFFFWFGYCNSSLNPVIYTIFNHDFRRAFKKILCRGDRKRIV

[4] = Pharmacokinetics after intraperitoneal injection in mice; type: in vivo
Text: Where Cmax is the peak concentration, Tmax is the time between administration and reaching Cmax, and t1/2 is the elimination half-life.

[5] = target: T3, RORγt-LBD (Homo sapiens, UniProt P51449); assay: HPLC direct interaction with RORγt-LBD; type: binding
T3 sequence (P51449 269-508 limits assumed): T1 sequence (P51449 269-508 limits assumed)

[6] = target: T3, RORγt-LBD; assay: Circular dichroism (CD) spectrum of RORγt; type: binding
Text: FIG. 7F is a graph illustrating how topotecan alters the variation of circular dichroism (CD) spectrum of RORγt. CD is a powerful method for probing protein and ligand interactions in solution. […] FIG. 7G is a graph plotting CD Signal as a function of wavelength. […] FIG. 7H is an illustration showing how topotecan interacts with multiple important residues on human RORγt. The binding mode of topotecan to human RORγt is examined using molecular docking. […] Put together, by combining information gleaned from the deep learning network model and experimental assays, topotecan is identified as a novel, direct inhibitor of human RORγt.

[7] = target: firefly luciferase (Photinus pyralis, UniProt P08659); assay: Control firefly luciferase activity experiment; type: cell-based; conditions: control experiment for promiscuous effects on luciferase
Text: (§1) FIG. 7B is a graph showing the inhibitory rate as a function of topotecan concentration. […] FIG. 7C is a graph showing the effect of topotecan on fluorescence intensity. […] FIG. 7D is a graph showing the effect of topotecan on cell viability.

[8] = tested on: EAE mice; assay: Experimental autoimmune encephalomyelitis (EAE) model; type: in vivo, C57BL/6 mice
Method: FIG. 8A is a schedule of the application of an experimental autoimmune encephalomyelitis (EAE) model. EAE is a most frequently used experimental animal model for human multiple sclerosis. To investigate the therapeutic potential of topotecan in multiple sclerosis, EAE was induced in C57BL/6 mice by active immunization with […] in complete Freund's adjuvant (CFA) followed by pertussis toxin administration, according to the application schedule shown in FIG. 8A. Topotecan (10 mg/kg) or vehicle (sterile water, control) was administered intraperitoneally every four days during the course of EAE. Disease severity was assessed and graded using a five-point scoring system for 15 days.
During the course of EAE, changes in body weight also reflect disease severity. FIG. 8C is a graph showing weight loss in miss after the application of topotecan during EAE.
Multiple sclerosis is a chronic demyelinating disease accompanied by blood-brain barrier disruption. Near-infrared in vivo imaging is further utilized to evaluate the demyelination and blood-brain barrier leakage in EAE mice. A near-infrared fluorescent dye, 3, 3′-diethylthiatricarbocyanine iodide (DBT), easily enter into the brain and selectively binds to myelin fibers45. […] Cy5.5-BSA, a fluorescent BSA conjugate with bright near infrared fluorescence, penetrates the brain when the blood-brain barrier is disrupted.
T helper 17 (Th17) cells are a highly pro-inflammatory lineage of T helper cells defined by their production of interleukin 17 (IL-17)46. RORγt is necessary and sufficient for cytokine IL-17 expression in mouse and human Th17 cells46. Given the inhibitory effects of topotecan against RORγt, it was investigated whether topotecan affects IL-17 expression in EAE mice.

[9] = target: T4, RORγt (Mus musculus, UniProt P51450); assay: Target occupancy in mouse brain with tracer T0901317; type: in vivo, mice
T4 construct: Concentration of T0901317 in mice brain samples; from tissue; host or cells: mouse brain
T4 sequence (P51450 1-495 isoform P51450-2): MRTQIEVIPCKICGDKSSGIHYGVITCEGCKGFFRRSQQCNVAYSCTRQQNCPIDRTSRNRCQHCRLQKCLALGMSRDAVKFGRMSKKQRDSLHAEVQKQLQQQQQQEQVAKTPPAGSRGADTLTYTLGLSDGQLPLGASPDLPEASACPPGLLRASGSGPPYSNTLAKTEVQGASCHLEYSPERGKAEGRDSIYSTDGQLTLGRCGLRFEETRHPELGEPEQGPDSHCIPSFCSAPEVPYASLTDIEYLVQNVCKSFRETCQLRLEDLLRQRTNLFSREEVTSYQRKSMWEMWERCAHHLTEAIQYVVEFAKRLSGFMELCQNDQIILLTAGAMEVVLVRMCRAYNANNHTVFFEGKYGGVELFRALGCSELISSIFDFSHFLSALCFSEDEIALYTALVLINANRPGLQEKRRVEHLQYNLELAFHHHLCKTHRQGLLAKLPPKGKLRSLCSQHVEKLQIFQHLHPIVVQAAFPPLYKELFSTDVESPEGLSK
Method: In the data presented in Table 2, T0901317, an orthosteric ligand of RORγt, was used as the tracer for assessing target occupancy of TPT. A Student's t-test was performed to obtain the p-value, and sterile water was used as vehicle.

[10] = tested on: normal cell lines or other mice organs; assay: Toxicity on normal cell lines or mice organs
Text: Accordingly, as predicted by the systems and methods presented herein, topotecan is a good drug candidate in possible treatment of MS.

[11] = target: T3, RORγt-LBD; assay: HTRF coactivator (SRC-1 peptide) recruitment assay; type: biochemical; conditions: read-out: IC50 (disruption of RORγt-LBD interaction with SRC-1 cofactor peptide)
Text: Nuclear receptors execute their versatile transcriptional functions by recruiting positive and negative regulatory proteins, known as coactivators or corepressors, respectively. Agonists promote interactions between nuclear receptors and coactivators, while antagonists either inhibit coactivator binding or facilitate corepressor recruitment. The functional change of the binding of topotecan on RORγt is investigated by utilizing a HTRF assay to evaluate ligand-induced coactivator recruitment to RORγt.
FIG. 7E is another graph showing the inhibitory rate of topotecan as a function of concentration as predicted by an example deep learning network system.

[12] = target: retinoid X receptor α LBD (RXRα-LBD) (Homo sapiens, UniProt P19793); assay: HPLC direct interaction with RXRα-LBD; type: binding
[13] = tested on: HEK293T cells; assay: HEK293T cell viability; type: cell-based, human; conditions: same concentration range as in the reporter assay
Text: as §1

[14] = at a concentration of 10 μM, GAL4-RORγt HEK293T luciferase reporter, read-out: inhibitory rate
[15] = read-out: inhibitory rate, at a concentration of 10 μM, GAL4-RORγt HEK293T luciferase reporter
[16] = mouse, ip, brain, intraperitoneal injection in mice
[17] = mouse, ip, plasma, intraperitoneal injection in mice
[18] = 10 mg/kg intraperitoneally every four days

Sequence of retinoid X receptor α LBD (RXRα-LBD) (P19793 227-458 limits assumed, species assumed): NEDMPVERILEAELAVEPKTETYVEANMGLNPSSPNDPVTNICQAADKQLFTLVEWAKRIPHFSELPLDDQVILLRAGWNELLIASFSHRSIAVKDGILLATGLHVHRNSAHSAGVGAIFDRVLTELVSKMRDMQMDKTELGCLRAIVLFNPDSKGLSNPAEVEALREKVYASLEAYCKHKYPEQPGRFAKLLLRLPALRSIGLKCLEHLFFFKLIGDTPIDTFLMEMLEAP
Sequence of firefly luciferase (P08659 whole entry): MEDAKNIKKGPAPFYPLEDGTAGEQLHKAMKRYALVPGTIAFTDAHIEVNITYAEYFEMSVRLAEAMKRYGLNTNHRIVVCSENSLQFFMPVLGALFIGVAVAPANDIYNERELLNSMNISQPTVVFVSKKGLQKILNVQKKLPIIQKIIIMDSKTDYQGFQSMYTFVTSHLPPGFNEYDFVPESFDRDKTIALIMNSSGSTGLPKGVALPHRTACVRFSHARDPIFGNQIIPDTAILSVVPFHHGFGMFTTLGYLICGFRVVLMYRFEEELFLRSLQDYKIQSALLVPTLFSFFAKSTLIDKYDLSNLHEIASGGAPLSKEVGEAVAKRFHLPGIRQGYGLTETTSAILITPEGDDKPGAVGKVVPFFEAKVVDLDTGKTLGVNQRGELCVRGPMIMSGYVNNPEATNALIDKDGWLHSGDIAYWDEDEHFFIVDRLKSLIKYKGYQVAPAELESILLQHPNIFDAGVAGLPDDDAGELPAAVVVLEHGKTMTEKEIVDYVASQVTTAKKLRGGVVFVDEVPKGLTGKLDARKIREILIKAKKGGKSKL
Sequence of DRD2 (P14416 whole entry): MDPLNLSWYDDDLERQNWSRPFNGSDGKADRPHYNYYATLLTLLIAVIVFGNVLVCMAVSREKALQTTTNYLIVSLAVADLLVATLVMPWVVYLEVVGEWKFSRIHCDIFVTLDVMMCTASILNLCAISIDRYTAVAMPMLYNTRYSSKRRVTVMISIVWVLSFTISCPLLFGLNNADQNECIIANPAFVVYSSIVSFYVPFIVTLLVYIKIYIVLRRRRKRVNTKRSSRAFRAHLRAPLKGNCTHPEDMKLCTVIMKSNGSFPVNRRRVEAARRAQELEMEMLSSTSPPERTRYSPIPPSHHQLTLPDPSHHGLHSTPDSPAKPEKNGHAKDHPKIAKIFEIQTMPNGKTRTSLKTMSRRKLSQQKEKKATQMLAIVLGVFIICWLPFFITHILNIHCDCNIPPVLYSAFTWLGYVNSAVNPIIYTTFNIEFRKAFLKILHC

With CC(C)(Oc1ccc(CCNC(=O)c2ccc(Cl)cc2)cc1)C(=O)O [bezafibrate] the inhibition at 10 µM [1, 14] was > 30%.
In the case of CC(CCc1ccc(O)cc1)NCCc1ccc(O)c(O)c1 (stereo not drawn) [dobutamine], the IC50 [2] is listed as 8.22 µM and the IC50 [3] is listed as 10.8 µM.
With C#C[C@]1(O)CC[C@H]2[C@@H]3CCC4=CC(=O)CC[C@@H]4[C@H]3CC[C@@]21C [norethindrone] the inhibition at 10 µM [1, 15] was > 30%.
In the case of CN(CCOc1ccc(CC2SC(=O)NC2=O)cc1)c1ccccn1 (stereo not drawn) [rosiglitazone], the inhibition at 10 µM [1, 14] is reported as > 30%.
With CC(=O)S[C@@H]1CC2=CC(=O)CC[C@]2(C)[C@H]2CC[C@@]3(C)[C@@H](CC[C@@]34CCC(=O)O4)[C@H]12 [spironolactone] the inhibition at 10 µM [1, 15] was > 30%.
With CCOC(=O)c1ccc(C#Cc2ccc3c(c2)C(C)(C)CCS3)nc1 [tazarotene] the inhibition at 10 µM [1, 14] was > 30%.
For CC[C@@]1(O)C(=O)OCc2c1cc1n(c2=O)Cc2cc3c(CN(C)C)c(O)ccc3nc2-1 [topotecan], the brain penetration ([4]; mouse models) was “ideal brain penetration”, the AUC(0-inf) [4, 16] was 0.173 µg·h/mL and the AUC(0-t) [4, 16] was 0.17 µg·h/mL. For the same molecule, the Cmax [4, 16] was 0.121 µg/mL, the Tmax [4, 16] was 30 min and the AUC(0-inf) [4, 17] was 3.31 µg·h/mL. The AUC(0-t) [4, 17] was 3.28 µg·h/mL, the Cmax [4, 17] was 3.25 µg/mL and the Tmax [4, 17] was 30 min. The half-life [4, 17] was 289 min, the “direct interaction by HPLC” value [5] was “directly interacts with RORγt-LBD” and the IC50 ([1]; GAL4-RORγt expressing HEK293T cells, read-out: IC50 (antagonistic activity)) was 0.43 ± 0.02 µM. The inhibitory rate ([1]; at a concentration of 10 μM, GAL4-RORγt HEK293T luciferase reporter, 10 µM) was 71.0%, the “change of CD spectrum of RORγt (direct binding)” value [6] was “alters the variation of CD spectrum of RORγt” and the “suppression of control firefly luciferase activity” value [7] was “no suppression is observed”. The “EAE induced body weight loss” value [8, 18] was “more tolerable to EAE induced body weight loss than vehicle-treated mice”, the “onset of clinical symptoms” value [8, 18] was “significantly delay in the onset of clinical symptoms” and the clinical score ([8]; 10 mg/kg intraperitoneally every four days, five-point scoring) was “observable reduction of clinical score”. The “IL-17 production in brain and spinal cords” value ([8]; ELISA) was “significantly reduces IL-17 production”, the “demyelination in white matter (LFB staining)” value ([8]; day 20 after immunization) was “demyelination is significantly reversed” and the “infiltration of leukocytes in spinal cord (H&E staining)” value ([8]; day 20 after immunization) was “infiltration is largely reduced”. The “DBT near-infrared fluorescence (myelin imaging)” value ([8]; near-infrared in vivo imaging) was “reverses fluorescence”, the “accumulation of Cy5.5-BSA fluorescent probe in the brain (blood-brain barrier leakage)” value ([8]; near-infrared in vivo imaging) was “higher accumulation of the fluorescent probe in the brain of vehicle treated mice as compared to the topotecan treatment group” and the “Concentration of T0901317 in mice brain samples” value ([9]; individual mice 1-5, TPT-treated, tracer T0901317, listed as TPT) was 2788.48 ng/g and 4396.96 ng/g and 3365.97 ng/g and 3736.16 ng/g and 3212.96 ng/g. For the same molecule, the “Concentration of T0901317 in mice brain samples, Mean” value ([9]; mean of 5 TPT-treated mice, vehicle mean 4426.55, P-value 0.0029) was 3500.11 ng/g, the “toxicity on normal cell lines or other mice organs” value [10] was “very low toxicity” and the IC50 [11] was 6.65 ± 0.02 µM. The “direct interaction by HPLC” value [12] was “not with retinoid X receptor α LBD” and the “effect on HEK293T cell viability” value [13] was “minor effect”.
